# Assay results taken from ChEMBL document CHEMBL1130712, “Phenylpiperazine derivatives with strong affinity for 5HT1A, D2A and D3 receptors” (Bioorg Med Chem Lett, 1998).
# Legend:
# D(2) dopamine receptor = D(2) dopamine receptor (Homo sapiens, UniProt P14416); assay: Compound was measured for the binding affinity in homogenated mouse fibroblast (LTK) cells transfected with human Dopamine receptor D2A using [3H]raclopride as radioligand.
# [1] = biological target: T1, 5-hydroxytryptamine receptor 1A (Rattus norvegicus, UniProt P19327); assay: Compound was measured for the inhibition of [3H]8-OH-DPAT binding to rat hippocampus membrane (5-HT1A receptor); format: tissue-based
# T1 sequence (P19327 whole entry): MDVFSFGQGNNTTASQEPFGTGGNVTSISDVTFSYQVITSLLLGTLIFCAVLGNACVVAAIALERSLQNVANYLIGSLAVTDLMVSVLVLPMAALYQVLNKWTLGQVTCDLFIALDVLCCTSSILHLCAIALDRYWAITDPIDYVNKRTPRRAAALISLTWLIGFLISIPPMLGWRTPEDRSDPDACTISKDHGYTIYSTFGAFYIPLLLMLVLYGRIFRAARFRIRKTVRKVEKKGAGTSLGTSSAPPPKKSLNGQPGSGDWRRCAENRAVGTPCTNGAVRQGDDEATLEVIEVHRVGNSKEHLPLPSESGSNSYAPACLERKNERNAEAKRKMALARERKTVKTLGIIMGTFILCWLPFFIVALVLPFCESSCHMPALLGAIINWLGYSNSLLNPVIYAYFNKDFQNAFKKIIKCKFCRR
# D(3) dopamine receptor = D(3) dopamine receptor (Homo sapiens, UniProt P35462); assay: Compound was measured for the binding affinity in chinese hamster ovary (CHO) cells transfected with human Dopamine receptor D3 using [3H]raclopride as radioligand; format: cell-based
# D(3) dopamine receptor, sequence (P35462 whole entry): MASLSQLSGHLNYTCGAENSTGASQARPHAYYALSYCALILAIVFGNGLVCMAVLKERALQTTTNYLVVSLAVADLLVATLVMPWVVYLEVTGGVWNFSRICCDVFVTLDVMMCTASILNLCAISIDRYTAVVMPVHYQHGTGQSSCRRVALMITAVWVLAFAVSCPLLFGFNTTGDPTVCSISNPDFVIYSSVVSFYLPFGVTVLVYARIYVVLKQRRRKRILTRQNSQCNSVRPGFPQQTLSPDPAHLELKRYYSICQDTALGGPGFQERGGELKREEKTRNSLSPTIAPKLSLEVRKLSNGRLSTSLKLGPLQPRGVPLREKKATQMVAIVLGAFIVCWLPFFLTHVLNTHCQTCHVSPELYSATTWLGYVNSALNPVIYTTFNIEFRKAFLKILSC
# D(2) dopamine receptor, sequence (P14416 whole entry): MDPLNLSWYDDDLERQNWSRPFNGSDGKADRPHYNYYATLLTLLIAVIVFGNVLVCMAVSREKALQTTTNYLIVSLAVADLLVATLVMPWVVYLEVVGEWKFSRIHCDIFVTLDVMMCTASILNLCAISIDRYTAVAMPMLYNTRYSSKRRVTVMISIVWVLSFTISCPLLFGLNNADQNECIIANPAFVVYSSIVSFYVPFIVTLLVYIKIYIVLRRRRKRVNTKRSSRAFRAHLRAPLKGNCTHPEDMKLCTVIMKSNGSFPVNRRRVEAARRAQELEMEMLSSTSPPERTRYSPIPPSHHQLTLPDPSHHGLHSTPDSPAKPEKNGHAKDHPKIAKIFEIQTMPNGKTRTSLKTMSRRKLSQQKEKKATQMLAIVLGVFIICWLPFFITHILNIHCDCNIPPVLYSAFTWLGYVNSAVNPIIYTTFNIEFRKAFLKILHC
Ki (D(2) dopamine receptor) [µM],Ki [1] [µM],Ki (D(3) dopamine receptor) [µM],Structure (SMILES)
0.016,0.00561,0.0497,O=c1ccc2ccc(OCCCN3CCN(c4ccccc4)CC3)cc2o1
0.00592,0.00531,0.0447,Cc1c(C)c2ccc(OCCCN3CCN(c4ccccc4)CC3)cc2oc1=O
0.0137,0.00554,0.0738,Cc1cc(=O)oc2cc(OCCCN3CCN(c4ccccc4)CC3)ccc12

Structure (SMILES),Ki (D(2) dopamine receptor) [µM],Ki [1] [µM],Ki (D(3) dopamine receptor) [µM]
Cc1cc2ccc(OCCCN3CCN(c4ccccc4)CC3)cc2oc1=O,0.0108,,0.0189
